Data reported in US20090062388A1, “Use of acetyl L-carnitine for the preparation of a medication for the preventive therapy for pain” (Sigma-Tau Industrie Farmaceutiche Riunite S.p.A., priority 2001, published 2009).
Where two headings read alike, the source gives them in different places.

Test system: mice
Format: in vivo
Settings: for Hot plate Licking latency: antagonist pre-treatment + PS (no acetyl L-carnitine); for antagonism of the analgesia induced by acetyl L-carnitine: acetyl L-carnitine 100 mg/kg BID SC for 7 days, hot plate
Protocol: The analgesia induced by the acetyl L-carnitine (100 mg/kg BID, SC for 7 days) was determined in presence of some antagonists of some neurotransmission systems deeply involved in the regulation of pain threshold, and in particular the naloxone (opioid antagonist), the CGP-35348 (GABAB antagonist) and the alpha-methyl-p-tyrosine (inhibitor of the synthesis of cathecolamines).
In agreement with the standard procedures known by the person skilled in the art, the doses used for any antagonist were the minimum required to prevent the analgesia induced by morphine (7 mg/kg SC) (1, 100 e 200 mg/kg IP), baclofen (4 mg/kg SC) and amphetamine (1 mg/kg SC) (non-reported data) respectively.

[1] = dose (naloxone 1, CGP 35348 100, alpha-M-p-T 200, atropine 5 mg/kg, HC-3 1 μg, pirenzepine 0.1 μg, S-(−)-ET-126 0.1 μg ICV), before treatment

SMILES | Hot plate Licking latency (after treatment 15 min) [s] | Hot plate Licking latency (after treatment 30 min) [s] | Hot plate Licking latency (after treatment 45 min) [s] | Hot plate Licking latency [1] [s] | antagonism of the analgesia induced by acetyl L-carnitine
CC(N)(Cc1ccc(O)cc1)C(=O)O (stereo not drawn) [Alpha-M-p-T, alpha-methyl-p-tyrosine, reference compound] | 15.4 ± 1.6 | 16.1 ± 1.8 | 13.6 ± 1.5 | 14.6 ± 0.9 | –
CN1[C@@H]2CC[C@H]1C[C@@H](OC(=O)C(CO)c1ccccc1)C2 (some centres unmarked) [Atropine, atropine, reference compound] | 13.7 ± 1.1 | 15.4 ± 1.2 | 13.1 ± 1.9 | 14.1 ± 0.9 | capable to antagonize the increase of the pain threshold
CCOC(OCC)P(=O)(O)CCCN [CGP 35348, reference compound] | 12.4 ± 1.0 | 12.6 ± 1.3 | 12.2 ± 1.6 | 14.4 ± 0.8 | –
C[N+]1(C)CCOC(O)(c2ccc(-c3ccc(C4(O)C[N+](C)(C)CCO4)cc3)cc2)C1.[Br-].[Br-] (centres unmarked) [HC-3, hemicholinium-3, reference compound] | 13.7 ± 1.1 | 15.4 ± 1.2 | 13.1 ± 1.9 | 14.1 ± 0.9 | capable to antagonize the increase of the pain threshold
C=CCN1CC[C@]23c4c5ccc(O)c4O[C@H]2C(=O)CC[C@@]3(O)[C@H]1C5 [Naloxone, naloxone, reference compound] | 13.3 ± 1.3 | 13.1 ± 1.1 | 14.2 ± 1.3 | 14.0 ± 0.7 | –
CN1CCN(CC(=O)N2c3ccccc3C(=O)Nc3cccnc32)CC1 [Pirenzepine, pirenzepine, reference compound] | 13.9 ± 1.5 | 14.5 ± 1.8 | 15.5 ± 1.5 | 13.6 ± 0.8 | capable to antagonize the increase of the pain threshold
CN1CCC(OC(=O)[C@H](CO)c2ccccc2)CC1 [S-(−)-ET-126, reference compound] | 15.3 ± 1.8 | 16.2 ± 1.9 | 16.1 ± 2.0 | 15.0 ± 1.0 | capable to antagonize the increase of the pain threshold
